This is an account of results in ChEMBL document CHEMBL1201862, “PubChem BioAssay data set” (2004).

Molecules are shown by their SMILES.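 These data come from cells grown in 96-well plates and exposed to compound for 48 hours at five concentrations. The concentration for 50% growth inhibition is given as GI50.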 Activity calls are given as the source filed them. Cut-off read from the data, not from the text of the source: active = GI50 up to about 1.1 µM and inactive = higher.

Some test systems named below: A549; ACHN; HCT-116; HCT-15; HOP-62; HOP-92; K562; KM12; NCI-H460; NCI-H522; OVCAR-4; OVCAR-8; RPMI-8226; RXF 393; SK-MEL-28; SK-MEL-2; U-251; HCC 2998; MOLT-4.
What all share (test): DTP human tumour cell line panel, 48 h

As to `O=[N+]([O-])c1ccc(/C=C(/c2ccc([N+](=O)[O-])o2)S(=O)(=O)c2ccccc2)o1`, the GI50 is 18.7 µM (inactive) in the test with A549; 2.84 µM (inactive) with ACHN; 1.71 µM (inactive) with HCT-116; 11.6 µM in the test on HCT-15; 17.8 µM (inactive) with HOP-62; 12 µM (inactive) in the test with HOP-92. In addition, the GI50 was 2.96 µM (inactive) in the test on K562; 17.7 µM (inactive) in the test with KM12; 21.2 µM (inactive) with NCI-H460; 1.93 µM (inactive) in the test with NCI-H522; 4.22 µM (inactive) in the test on OVCAR-4; 4.49 µM (inactive) in the test with OVCAR-8. The GI50 is 0.128 µM (active) in the test with RPMI-8226; 25.1 µM (inactive) in the test on RXF 393; 15.6 µM (inactive) in the test on SK-MEL-28; 17.4 µM (inactive) in the test with SK-MEL-2; 15.9 µM (inactive) with U-251.
With `O=C(N/N=C(\C1=Nc2ccc(Cl)cc2NC1O)C(O)/C=C/c1ccccc1)c1ccncc1` (centres undefined), the GI50 with A549 was > 100 µM (inactive); in the test with ACHN, > 100 µM (inactive); with HCC 2998, > 100 µM (inactive); in the test with HCT-116 it was > 100 µM (inactive); with HCT-15, more than 100 µM; in the test on HOP-62, > 100 µM (inactive). Moreover, the GI50 in the test on HOP-92 is 54.5 µM (inactive); in the test with K562 it was > 100 µM (inactive); in the test on KM12, > 100 µM (inactive); in the test with MOLT-4, > 100 µM (inactive); in the test on NCI-H460, > 100 µM (inactive); in the test on NCI-H522, > 100 µM (inactive). Besides, the GI50 with OVCAR-4, with OVCAR-8, with RPMI-8226, with RXF 393, in the test on SK-MEL-28 and in the test on U-251 was > 100 µM (inactive) in each case.
Regarding `O=C(NC(Cc1ccccc1)P(=O)(O)c1ccccc1)OCc1ccccc1` (centres undefined), the GI50 was > 100 µM (inactive) with A549; > 100 µM (inactive) in the test with ACHN; > 100 µM (inactive) in the test with HCT-116; more than 100 µM with HCT-15; > 100 µM (inactive) in the test on HOP-62; > 100 µM (inactive) in the test with HOP-92. The GI50 in the test on K562, in the test on KM12, with MOLT-4, in the test with NCI-H460, with NCI-H522 and in the test on OVCAR-4 was > 100 µM (inactive) each time. Also, the GI50 in the test on OVCAR-8, in the test with RPMI-8226, with SK-MEL-28 and in the test on U-251 was > 100 µM (inactive) each time.
In the case of `N#CC(C#N)=C/C=C(\Sc1c(Cl)c(Cl)nc(Cl)c1Cl)c1ccc(Cl)cc1`, the GI50 with A549 was > 100 µM (inactive); in the test with ACHN it was 16.8 µM (inactive); in the test with HCT-116 it was 10.2 µM (inactive); in the test on HCT-15, 12.9 µM; in the test with HOP-62, 29.2 µM (inactive); with HOP-92 it was 26.5 µM (inactive). Further, the GI50 with K562 is 5.93 µM (inactive); in the test with KM12 it was 19.1 µM (inactive); in the test with MOLT-4 it was 4.56 µM (inactive); in the test with NCI-H460, 26.4 µM (inactive); in the test on NCI-H522, 18.8 µM (inactive); in the test with OVCAR-4 it was 29.9 µM (inactive). In addition, the GI50 with OVCAR-8 is 5.05 µM (inactive); in the test on RPMI-8226, 4.1 µM (inactive); in the test on RXF 393, 18.5 µM (inactive); in the test on SK-MEL-28, 19.2 µM (inactive); in the test with SK-MEL-2 it was 32.4 µM (inactive); with U-251 it was 16.8 µM (inactive).
`COc1cc(C)c2c(c1)CN1CN2Cc2cc(OC)cc(C)c21`: the GI50 was 96.4 µM (inactive) with A549; 37.8 µM (inactive) with ACHN; 47.9 µM (inactive) in the test on HCT-116; 34.8 µM with HCT-15; 65.6 µM (inactive) with HOP-62; 35.3 µM (inactive) in the test on HOP-92. Besides, the GI50 in the test with K562 is 46.9 µM (inactive); in the test on KM12, 58.2 µM (inactive); in the test with MOLT-4, 45 µM (inactive); in the test on NCI-H460, 64.6 µM (inactive); in the test on NCI-H522, > 100 µM (inactive); with OVCAR-4 it was 32.8 µM (inactive). In addition, the GI50 is 85.7 µM (inactive) with OVCAR-8, 43.8 µM (inactive) in the test on RPMI-8226, 45.6 µM (inactive) in the test with SK-MEL-2 and 50.6 µM (inactive) with U-251.
Turning to `CC(=O)C(=C(c1ccccc1)c1ccccc1)c1ccccc1`, the GI50 is > 100 µM (inactive) in the test on A549; > 100 µM (inactive) in the test on ACHN; > 100 µM (inactive) in the test with HCC 2998; > 100 µM (inactive) in the test on HCT-116; 86.7 µM in the test on HCT-15; > 100 µM (inactive) with HOP-62. The GI50 in the test on HOP-92 is > 100 µM (inactive); in the test on K562, 62.7 µM (inactive); in the test with KM12, > 100 µM (inactive); with MOLT-4, 87.5 µM (inactive); with NCI-H460 it was > 100 µM (inactive); in the test with NCI-H522 it was > 100 µM (inactive). In addition, the GI50 was 70 µM (inactive) in the test on OVCAR-4; > 100 µM (inactive) with OVCAR-8; 52.6 µM (inactive) in the test on RPMI-8226; > 100 µM (inactive) in the test with RXF 393; > 100 µM (inactive) with SK-MEL-28; > 100 µM (inactive) in the test on U-251.
`CC1(C)CC(=O)c2c(nc3c(ccc4ccccc43)c2-c2ccc(NC(=O)CCC(=O)Nc3ccc(-c4c5c(nc6c4ccc4ccccc46)CC(C)(C)CC5=O)cc3)cc2)C1`: the GI50 was > 100 µM (inactive) with A549; > 100 µM (inactive) in the test with ACHN; > 100 µM (inactive) with HCT-116; more than 100 µM in the test on HCT-15; > 100 µM (inactive) in the test with HOP-62; > 100 µM (inactive) in the test with HOP-92. Besides, the GI50 in the test with K562, with KM12, in the test on MOLT-4, with NCI-H460, in the test on NCI-H522 and with OVCAR-8 was > 100 µM (inactive) in each case. Also, the GI50 in the test with RPMI-8226, with RXF 393, in the test with SK-MEL-28, with SK-MEL-2 and in the test on U-251 was > 100 µM (inactive) throughout.
Turning to `NC(=O)N/N=C/C(=C/Nc1ccccc1)[N+](=O)[O-]`, the GI50 in the test with A549 was > 100 µM (inactive); with ACHN, > 100 µM (inactive); in the test on HCC 2998, > 100 µM (inactive); in the test with HCT-116, > 100 µM (inactive); in the test on HCT-15 it was more than 100 µM; in the test with HOP-62, > 100 µM (inactive). Besides, the GI50 in the test with HOP-92 was 79.3 µM (inactive); with K562 it was > 100 µM (inactive); with MOLT-4 it was 93.8 µM (inactive); in the test with NCI-H460, 89.1 µM (inactive); in the test with NCI-H522 it was > 100 µM (inactive); in the test with OVCAR-4 it was > 100 µM (inactive). Also, the GI50 in the test on OVCAR-8, with RPMI-8226, with RXF 393, with SK-MEL-28 and in the test with U-251 was > 100 µM (inactive) throughout.
`NC(=O)c1ncn(CCN2CCN(C(=O)NCCCCCCNC(=O)N3CCN(CCn4cnc(C(N)=O)c4N)CC3)CC2)c1N`: the GI50 in the test with A549 is > 100 µM (inactive); with ACHN, > 100 µM (inactive); with HCC 2998, > 100 µM (inactive); in the test on HCT-116 it was > 100 µM (inactive); with HCT-15, more than 100 µM; in the test with HOP-62, > 100 µM (inactive). In addition, the GI50 in the test with HOP-92, in the test with K562, in the test with KM12, in the test with MOLT-4, in the test on NCI-H460 and in the test with OVCAR-4 was > 100 µM (inactive) in each case. The GI50 in the test with OVCAR-8, in the test on RPMI-8226, in the test with RXF 393, in the test on SK-MEL-28, in the test on SK-MEL-2 and in the test with U-251 was > 100 µM (inactive) each time.
Regarding `N#CCc1cccc(CC#N)c1Br`, the GI50 is > 100 µM (inactive) with A549; > 100 µM (inactive) in the test on ACHN; > 100 µM (inactive) with HCT-116; more than 100 µM with HCT-15; > 100 µM (inactive) in the test with HOP-62; 45.2 µM (inactive) in the test with HOP-92. Moreover, the GI50 in the test with K562, in the test on KM12, in the test with MOLT-4, in the test on NCI-H460, with NCI-H522 and in the test on OVCAR-4 was > 100 µM (inactive) each time. Moreover, the GI50 with OVCAR-8 was > 100 µM (inactive); in the test on RPMI-8226 it was > 100 µM (inactive); with RXF 393, 35 µM (inactive); in the test on SK-MEL-2 it was > 100 µM (inactive); in the test with U-251, > 100 µM (inactive).
As for `O=C1CNc2cc(N3CCN(c4cccc(C(F)(F)F)c4)CC3)ccc2N1`, the GI50 is 24.7 µM (inactive) in the test on A549; 50.6 µM (inactive) with ACHN; 68.1 µM (inactive) with HCC 2998; 35.7 µM (inactive) in the test with HCT-116; 38.9 µM in the test with HCT-15; > 100 µM (inactive) with HOP-62. For the same compound, the GI50 with HOP-92 was > 100 µM (inactive); with KM12, 32.9 µM (inactive); with MOLT-4, 28.7 µM (inactive); with NCI-H460, 53 µM (inactive); with NCI-H522 it was 13.9 µM (inactive); in the test with OVCAR-4, 21.4 µM (inactive). Also, the GI50 with OVCAR-8 was 83.2 µM (inactive); in the test with RPMI-8226, 31.7 µM (inactive); in the test with SK-MEL-28 it was 68.5 µM (inactive); in the test on SK-MEL-2 it was 0.755 µM (active); with U-251, 31 µM (inactive).

The GI50 is the concentration that inhibits growth by half.
